Assay results from patent publication US7056940B2, “Insecticidal 3-(2,6-disubstituted phenyl)-5-[5-arylthien-2-yl]-1,2,4-triazoles” (Dow AgroSciences LLC, priority 2001, dated 2006).

Each compound was assayed on Sweetpotato Whitefly (Bemisia tabacia) (assay: Insecticidal test for sweetpotato whitefly, spray on cotton plants). Settings: 200 ppm spray, 13 days, large nymphs.
Format: in vivo
Set-up: key: A: 90–100; B: 80–89; C: 70–79; D: 60–69; E: 50–59; F: less than 50; G: Inactive
Procedure: Insecticidal Test for Sweetpotato Whitefly (Bemisia tabacia)
Four mg of each test compound was dissolved by adding 4 mL of a 90:10 acetone:ethanol solvent mixture to the vial containing the sample compound. This solution was added to 16 mL of water containing 0.05% Tween 20 surfactant to produce 20 mL of an 200 ppm spray solution.
Five-week-old cotton plants reared in a greenhouse were stripped of all foliage except for the two uppermost true leaves that were greater than 5 cm in diameter. These plants were then placed into a laboratory colony of whiteflies for two days for oviposition by the colony females. All whiteflies were then removed from the test plants with pressurized air. The spray solution was then applied to the test plants with a hand-held syringe fitted with hollow cone nozzle. One mL spray solution was applied to each leaf top and bottom for a total of 4 mL per plant. Four replications of each test compound utilized a total of 16 mL spray solution. Plants were air dried and then placed in a holding chamber (28° C. and 60% RH) for 13 days. Compound efficacy was evaluated by counting, under an illuminated magnifying glass, the number of large nymphs (3rd–4th instar) per leaf.
Percent control based on reduction of large nymphs of a test compound compared to solution-only (no test compound) sprayed plants is reported in Tables 1–4.
CSc1ccc(-c2scc(-c3nc(-c4c(F)cccc4Cl)nn3C)c2C)cc1 was tested, and the “WF: activity at 200 ppm against whitefly (% control rating)” value (“WF: activity … (% control rating)” below) was “G”. For Cc1c(-c2nc(-c3c(F)cccc3Cl)nn2C)csc1-c1cccc(OC(F)(F)F)c1, the “WF: activity … (% control rating)” value was “B (80–89)”. For Cc1c(-c2nc(-c3c(F)cccc3Cl)nn2C)csc1-c1ccc(Oc2ccccc2)cc1, the “WF: activity … (% control rating)” value was “A (90–100)”. CCCOc1ccc(-c2scc(-c3nc(-c4c(F)cccc4Cl)nn3C)c2C)cc1 was tested, and the “WF: activity … (% control rating)” value was “A (90–100)”. For Cc1c(-c2nc(-c3c(F)cccc3Cl)nn2C)csc1-c1ccc(OCC(F)(F)F)cc1, the “WF: activity … (% control rating)” value was “A (90–100)”. Cc1c(-c2nc(-c3c(F)cccc3Cl)nn2C)csc1-c1cc(C(F)(F)F)ccc1F was tested, and the “WF: activity … (% control rating)” value was “F (less than 50)”.

The compounds below were run on Two-spotted Spider Mite (Tetranychus urticae) (assay: Insecticidal test for two-spotted spider mite, ovicide method). Settings: cotton leaf discs, 6 days.
Format: in vivo
Set-up: key: A: 90–100; B: 80–89; C: 70–79; D: 60–69; E: 50–59; F: less than 50; G: Inactive
Procedure: Insecticidal Test for Two-spotted Spider Mite (Tetranychus urticae)
Ten adult female two-spotted spider mites were placed on eight 2.2 cm leaf discs of cotton leaf, allowed to oviposit over 24 hours, and thereafter removed. […] Discs were placed on an agar substrate and held at 24° C. and 90% RH for 6 days.
For CSc1ccc(-c2scc(-c3nc(-c4c(F)cccc4Cl)nn3C)c2C)cc1, the “SM: activity against two-spotted spider mite (% control rating)” value (“SM: activity … (% control rating)” below) was “E (50–59)”. For Cc1c(-c2nc(-c3c(F)cccc3Cl)nn2C)csc1-c1cccc(OC(F)(F)F)c1, the “SM: activity … (% control rating)” value was “F (less than 50)”. In the case of Cc1c(-c2nc(-c3c(F)cccc3Cl)nn2C)csc1-c1ccc(Oc2ccccc2)cc1, the “SM: activity … (% control rating)” value is reported as “A (90–100)”. In the case of CCCOc1ccc(-c2scc(-c3nc(-c4c(F)cccc4Cl)nn3C)c2C)cc1, the “SM: activity … (% control rating)” value is reported as “G”. For Cc1c(-c2nc(-c3c(F)cccc3Cl)nn2C)csc1-c1ccc(OCC(F)(F)F)cc1, the “SM: activity … (% control rating)” value was “A (90–100)”. For Cc1c(-c2nc(-c3c(F)cccc3Cl)nn2C)csc1-c1cc(C(F)(F)F)ccc1F, the “SM: activity … (% control rating)” value was “F (less than 50)”.

The compounds below were run on Beet Armyworm (Spodoptera exigua) (assay: Insecticidal test for beet armyworm, treated lepidopteran diet). Settings: on diet surface, second-instar larvae, 5 days.
Format: in vivo
Set-up: key: A: 90–100; B: 80–89; C: 70–79; D: 60–69; E: 50–59; F: less than 50; G: Inactive
Source text: (§1) The compounds are useful for reducing populations of insects and mites and are useful in a method of inhibiting an insect or mite population which comprises applying to a locus of the insect or mite an effective insect- or mite-inactivating amount of a compound of formula (1). The “locus” of insects or mites is a term used herein to refer to the environment in which the insects or mites live or where their eggs are present, including the air surrounding them, the food they eat, or objects which they contact. For example, insects or mites which eat or contact edible or ornamental plants can be controlled by applying the active compound to plant parts such as the seed, seedling, or cutting which is planted, the leaves, stems, fruits, grain, or roots, or to the soil in which the roots are growing. It is contemplated that the compounds might also be useful to protect textiles, paper, stored grain, seeds, domesticated animals, buildings or human beings by applying an active compound to or near such objects. The term “inhibiting an insect or mite” refers to a decrease in the numbers of living insects or mites, or a decrease in the number of viable insect or mite eggs. The extent of reduction accomplished by a compound depends, of course, upon the application rate of the compound, the particular compound used, and the target insect or mite species. At least an inactivating amount should be used. The terms “insect-inactivating amount” and “mite-inactivating amount” are used to describe the amount, which is sufficient to cause a measurable reduction in the treated insect or mite population. Generally an amount in the range from about 1 to about 1000 ppm by weight active compound is used. For example, insects and mites which can be inhibited include, but are not limited to: • Lepidoptera—Heliothis spp., Helicoverpa spp., Spodoptera spp., Mythimna unipuncta, Agrotis ipsilon, Earias spp., Euxoa auxiliaris, Trichoplusia ni, Anticarsia gemmatalis, Rachiplusia nu, Plutella xylostella, Chilo spp., Scirpophaga incertulas, Sesamia inferens, Cnaphalocrocis medinalis, Ostrinia nubilalis, Cydia pomonella, Carposina niponensis, Adoxophyes orana, Archips argyrospilus, Pandemis heparana, Epinotia aporema, Eupoecilia ambiguella, Lobesia botrana, Polychrosis viteana, Pectinophora gossypiella, Pieris rapae, Phyllonorycter spp., Leucoptera malifoliella, Phyllocnisitis citrella • Coleoptera—Diabrotica spp., Leptinotarsa decemlineata, Oulema oryzae, Anthonomus grandis, Lissorhoptrus oryzophilus, Agriotes spp., Melanotus communis, Popillia japonica, Cyclocephala spp., Tribolium spp. • Homoptera—Aphis spp., Myzus persicae, Rhopalosiphum spp., Dysaphis plantaginea, Toxoptera spp., Macrosiphum euphorbiae, Aulacorthum solani, Sitobion avenae, Metopolophium dirhodum, Schizaphis graminum, Brachycolus noxius, Nephotettix spp., Nilaparvata lugens, Sogatella furcifera, Laodelphax striatellus, Bemisia tabaci, Trialeurodes vaporariorum, Aleurodes proletella, Aleurothrixus floccosus, Quadraspidiotus perniciosus, Unaspis yanonensis, Ceroplastes rubens, Aonidiella aurantii • Hemiptera—Lygus spp., Eurygaster maura, Nezara viridula, Piezodorus guildingi, Leptocorisa varicornis • Thysanoptera—Frankliniella occidentalis, Thrips spp., Scirtothrips dorsalis • Isoptera—Reticulitermes flavipes, Coptotermes formosanus • Orthoptera—Blattella germanica, Blatta orientalis, Gryllotalpa spp. • Diptera—Liriomyza spp., Musca domestica, Aedes spp., Culex spp., Anopheles spp. • Hymenoptera—Iridomyrmex humilis, Solenopsis spp., Monomorium pharaonis, Atta spp., Pogonomyrmex spp., Camponotus spp. • Siphonaptera—Ctenophalides spp., Pulex irritans • Acarina—Tetranychus spp., Panonychus spp., Eotetranychus carpini, Phyllocoptruta oleivora, Aculus pelekassi, Brevipalpus phoenicis, Boophilus spp., Dermacentor variabilis, Rhipicephalus sanguineus, Amblyomma americanum, Ixodes spp., Notoedres cati, Sarcoptes scabiei, Dermatophagoides spp. […]
In the case of CSc1ccc(-c2scc(-c3nc(-c4c(F)cccc4Cl)nn3C)c2C)cc1, the “BAW: activity at 400 ppm against beet armyworm (% control rating)” value (“BAW: activity at 400 ppm … (% control rating)” below) is reported as “D (60–69)”. With Cc1c(-c2nc(-c3c(F)cccc3Cl)nn2C)csc1-c1cccc(OC(F)(F)F)c1 the “BAW: activity at 400 ppm … (% control rating)” value was “G”. Cc1c(-c2nc(-c3c(F)cccc3Cl)nn2C)csc1-c1ccc(Oc2ccccc2)cc1 was tested, and the “BAW: activity at 400 ppm … (% control rating)” value was “A (90–100)”. With CCCOc1ccc(-c2scc(-c3nc(-c4c(F)cccc4Cl)nn3C)c2C)cc1 the “BAW: activity at 400 ppm … (% control rating)” value was “A (90–100)”. With Cc1c(-c2nc(-c3c(F)cccc3Cl)nn2C)csc1-c1ccc(OCC(F)(F)F)cc1 the “BAW: activity at 400 ppm … (% control rating)” value was “A (90–100)”. With Cc1c(-c2nc(-c3c(F)cccc3Cl)nn2C)csc1-c1cc(C(F)(F)F)ccc1F the “BAW: activity at 400 ppm … (% control rating)” value was “G”.

These compounds were tested on Cotton Aphid (Aphis gossypii) (assay: Insecticidal test for cotton aphid, spray on infested squash cotyledons). Settings: 50 ppm spray, 3 days.
Format: in vivo
Procedure: Insecticidal Test for Cotton Aphid (Aphis gossypii)
To prepare spray solutions, 1 mg of each test compound was dissolved into 1 mL of a 90:10 acetone:ethanol solvent. This 1 mL of chemical solution was added to 19 mL of water containing 0.05% Tween 20 surfactant to produce a 50 ppm spray solution.
Squash cotyledons were infested with cotton aphid (all life stages) 16–20 hours prior to application of spray solution. The solution was sprayed on both sides of each infested squash cotyledon (0.5 mL×2 each side) with a sweeping action until runoff. The plants were allowed to air dry and held for 3 days in a controlled room at 26° C. and 40% RH after which time the test was graded. Grading was by actual count using a dissecting microscope and comparison of test counts to the untreated check. Results are given in Tables 1–4 as percent control based on population reduction versus the untreated.
In the case of CSc1ccc(-c2scc(-c3nc(-c4c(F)cccc4Cl)nn3C)c2C)cc1, the “CA: activity at 50 ppm against cotton aphid (% control rating)” value (from here on “CA: activity at 50 ppm … (% control rating)”) is reported as “B (80–89)”. With Cc1c(-c2nc(-c3c(F)cccc3Cl)nn2C)csc1-c1cccc(OC(F)(F)F)c1 the “CA: activity at 50 ppm … (% control rating)” value was “A (90–100)”. For Cc1c(-c2nc(-c3c(F)cccc3Cl)nn2C)csc1-c1ccc(Oc2ccccc2)cc1, the “CA: activity at 50 ppm … (% control rating)” value was “A (90–100)”. For CCCOc1ccc(-c2scc(-c3nc(-c4c(F)cccc4Cl)nn3C)c2C)cc1, the “CA: activity at 50 ppm … (% control rating)” value was “A (90–100)”. For Cc1c(-c2nc(-c3c(F)cccc3Cl)nn2C)csc1-c1ccc(OCC(F)(F)F)cc1, the “CA: activity at 50 ppm … (% control rating)” value was “B (80–89)”. In the case of Cc1c(-c2nc(-c3c(F)cccc3Cl)nn2C)csc1-c1cc(C(F)(F)F)ccc1F, the “CA: activity at 50 ppm … (% control rating)” value is reported as “B (80–89)”.

These compounds were tested on Cabbage Looper (Trichoplusia ni) (assay: Insecticidal test for cabbage looper, treated cabbage leaf disc). Settings: cabbage leaf-dip, 2nd instar larvae, 5 days.
Format: in vivo
Set-up: key: A: 90–100; B: 80–89; C: 70–79; D: 60–69; E: 50–59; F: less than 50; G: Inactive
Source text: as §1
With CSc1ccc(-c2scc(-c3nc(-c4c(F)cccc4Cl)nn3C)c2C)cc1 the “CL: activity at 400 ppm against cabbage looper (% control rating)” value (from here on “CL: activity at 400 ppm … (% control rating)”) was “G”. In the case of Cc1c(-c2nc(-c3c(F)cccc3Cl)nn2C)csc1-c1cccc(OC(F)(F)F)c1, the “CL: activity at 400 ppm … (% control rating)” value is reported as “A (90–100)”. For Cc1c(-c2nc(-c3c(F)cccc3Cl)nn2C)csc1-c1ccc(Oc2ccccc2)cc1, the “CL: activity at 400 ppm … (% control rating)” value was “A (90–100)”. In the case of CCCOc1ccc(-c2scc(-c3nc(-c4c(F)cccc4Cl)nn3C)c2C)cc1, the “CL: activity at 400 ppm … (% control rating)” value is reported as “A (90–100)”. With Cc1c(-c2nc(-c3c(F)cccc3Cl)nn2C)csc1-c1ccc(OCC(F)(F)F)cc1 the “CL: activity at 400 ppm … (% control rating)” value was “A (90–100)”. With Cc1c(-c2nc(-c3c(F)cccc3Cl)nn2C)csc1-c1cc(C(F)(F)F)ccc1F the “CL: activity at 400 ppm … (% control rating)” value was “A (90–100)”.

Each compound was assayed on Tobacco Budworm (Heliothis virescens) (assay: Insecticidal test for tobacco budworm, treated cotton cotyledon leaf disc). Settings: cotton cotyledon leaf-dip, 2nd instar larvae, 5 days.
Format: in vivo
Set-up: key: A: 90–100; B: 80–89; C: 70–79; D: 60–69; E: 50–59; F: less than 50; G: Inactive
Source text: as §1
In the case of CSc1ccc(-c2scc(-c3nc(-c4c(F)cccc4Cl)nn3C)c2C)cc1, the “TBW: activity at 400 ppm against tobacco budworm (% control rating)” value (“TBW: activity at 400 ppm … (% control rating)” for short) is reported as “G”. Cc1c(-c2nc(-c3c(F)cccc3Cl)nn2C)csc1-c1cccc(OC(F)(F)F)c1 was tested, and the “TBW: activity at 400 ppm … (% control rating)” value was “G”. In the case of Cc1c(-c2nc(-c3c(F)cccc3Cl)nn2C)csc1-c1ccc(Oc2ccccc2)cc1, the “TBW: activity at 400 ppm … (% control rating)” value is reported as “F (less than 50)”. With CCCOc1ccc(-c2scc(-c3nc(-c4c(F)cccc4Cl)nn3C)c2C)cc1 the “TBW: activity at 400 ppm … (% control rating)” value was “G”. In the case of Cc1c(-c2nc(-c3c(F)cccc3Cl)nn2C)csc1-c1ccc(OCC(F)(F)F)cc1, the “TBW: activity at 400 ppm … (% control rating)” value is reported as “A (90–100)”. For Cc1c(-c2nc(-c3c(F)cccc3Cl)nn2C)csc1-c1cc(C(F)(F)F)ccc1F, the “TBW: activity at 400 ppm … (% control rating)” value was “G”.
